Where a name gives a salt, the structure may show the parent alone.
How the values were obtained:
[1] = molecular target: T1, dopamine (DA) reuptake in synaptosomes (Rattus norvegicus, UniProt P23977); assay: Inhibition of DA reuptake in synaptosomes; assay type: biochemical; settings: 3H-DA, read-out: DA-uptake IC50
T1 construct: in synaptosomes as described in WO 97/16451; from tissue; host or cells: synaptosomes (brain tissue)
Source text: (§1) Compounds of the invention may be tested for their ability to inhibit re-uptake of the monoamines dopamine, noradrenaline and serotonin in synaptosomes e.g. such as described in WO 97/30997 (NeuroSearch A/S) or WO 97/16451 (NeuroSearch NS). Based on the balanced activity observed in these tests the compound of the invention is considered useful for the treatment, prevention or alleviation of a disease or a disorder or a condition of a mammal, including a human, which disease, disorder or condition is responsive to inhibition of monoamine neurotransmitter re-uptake in the central nervous system.
(§2) Compounds were tested for their ability to inhibit the reuptake of the monoamine neurotransmitters dopamine (DA) noradrenaline (NA) and serotonine (5-HT) in synaptosomes as described in WO 97/16451 (NeuroSearch A/S).
(§3) The test values are given as IC50 (the concentration (μM) of the test substance which inhibits the specific binding of ^3H-DA, ^3H-NA, or ^3H-5-HT by 50%).

[2] = molecular target: T2, serotonine (5-HT) reuptake in synaptosomes (Rattus norvegicus, UniProt P31652); assay: Inhibition of 5-HT reuptake in synaptosomes; assay type: biochemical; settings: 3H-5-HT, read-out: 5-HT-uptake IC50
T2 construct: serotonine (5-HT) in synaptosomes as described in WO 97/16451; from tissue; host or cells: synaptosomes (brain tissue)
T2 sequence (P31652 whole entry): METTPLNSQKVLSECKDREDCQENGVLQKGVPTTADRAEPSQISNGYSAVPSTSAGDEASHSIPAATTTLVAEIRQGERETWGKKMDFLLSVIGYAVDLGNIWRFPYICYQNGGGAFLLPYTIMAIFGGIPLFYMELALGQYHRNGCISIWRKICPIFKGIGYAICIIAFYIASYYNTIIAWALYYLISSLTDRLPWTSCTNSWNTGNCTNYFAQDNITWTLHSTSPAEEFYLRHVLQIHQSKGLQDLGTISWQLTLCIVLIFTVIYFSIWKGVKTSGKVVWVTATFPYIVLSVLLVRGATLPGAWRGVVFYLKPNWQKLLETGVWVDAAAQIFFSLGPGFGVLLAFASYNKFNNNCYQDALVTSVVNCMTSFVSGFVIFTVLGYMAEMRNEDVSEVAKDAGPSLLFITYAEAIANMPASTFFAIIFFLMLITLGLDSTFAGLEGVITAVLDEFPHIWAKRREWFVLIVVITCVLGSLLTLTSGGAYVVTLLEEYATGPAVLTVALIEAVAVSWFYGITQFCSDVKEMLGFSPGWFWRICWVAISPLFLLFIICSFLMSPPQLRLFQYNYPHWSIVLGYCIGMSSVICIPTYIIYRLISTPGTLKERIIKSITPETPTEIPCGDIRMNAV
Source text: as §1, §2, §3

T1 sequence (P23977 whole entry): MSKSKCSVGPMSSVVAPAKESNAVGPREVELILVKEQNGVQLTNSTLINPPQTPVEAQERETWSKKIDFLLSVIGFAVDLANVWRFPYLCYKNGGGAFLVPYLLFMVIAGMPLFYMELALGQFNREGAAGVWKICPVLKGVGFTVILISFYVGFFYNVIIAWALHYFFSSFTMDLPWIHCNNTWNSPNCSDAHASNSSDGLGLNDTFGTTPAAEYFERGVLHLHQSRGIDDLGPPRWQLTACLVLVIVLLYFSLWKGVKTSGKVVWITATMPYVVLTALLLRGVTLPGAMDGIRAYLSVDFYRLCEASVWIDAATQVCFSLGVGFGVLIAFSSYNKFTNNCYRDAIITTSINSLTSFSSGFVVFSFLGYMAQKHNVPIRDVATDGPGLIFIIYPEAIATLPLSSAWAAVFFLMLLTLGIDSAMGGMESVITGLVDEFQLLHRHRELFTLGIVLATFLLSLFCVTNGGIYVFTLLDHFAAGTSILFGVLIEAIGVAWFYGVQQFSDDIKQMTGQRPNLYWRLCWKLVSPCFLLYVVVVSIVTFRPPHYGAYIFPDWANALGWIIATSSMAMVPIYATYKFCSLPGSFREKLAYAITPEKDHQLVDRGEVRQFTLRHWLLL

## CCN(C(=O)C1CCNCC1)c1ccc(Cl)c(Cl)c1.O=C(O)C(F)(F)F [Compound C1, Piperidine-4-carboxylic acid (3,4-dichloro-phenyl)-ethyl-amide trifluoroacetic acid salt]
[1]
  IC50: 21 nM
[2]
  IC50: 370 nM
other
  melting point: 159.3 to 160.7 °C

## CCN(C(=O)C1CCNCC1)c1ccc(Cl)c(Br)c1 [Compound C7, Piperidine-4-carboxylic acid (3-bromo-4-chloro-phenyl)-ethyl-amide hydrochloric acid salt]
[1]
  IC50: 7.8 nM
[2]
  IC50: 140 nM

## CCN(C(=O)C1CCNCC1)c1ccc(Br)c(Br)c1 [Compound C13, Piperidine-4-carboxylic acid (3,4-dibromo-phenyl)-ethyl-amide hydrochloric acid salt]
[1]
  IC50: 4 nM
[2]
  IC50: 120 nM
